Test results published in ChEMBL document CHEMBL1201862, “PubChem BioAssay data set” (2004).
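Method: 48-hour compound exposure of cells in 96-well plates, five concentrations, linear interpolation of endpoints. GI50 is the concentration that inhibits growth by half.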 Activity calls are given as the source filed them. Rule as the data show it: active = GI50 up to about 1.1 µM and inactive = higher.

Legend:
Test in all cases: NCI tumour cell line growth inhibition, 48 h
[1] = system: MOLT-4
[2] = system: U-251
[3] = system: MDA-MB-435
[4] = system: DU-145
[5] = system: COLO 205
[6] = system: SNB-19
[7] = system: KM12
[8] = system: Hs-578T
[9] = system: OVCAR-5
[10] = system: SF-295
[11] = system: NCI-H460
[12] = system: SR
[13] = system: HOP-92
[14] = system: K562
[15] = system: SW-620
[16] = system: SF-539
[17] = system: RXF 393
[18] = system: NCI-H23
[19] = system: T47D
[20] = system: HCC 2998

| SMILES | GI50 [1] | GI50 [2] | GI50 [3] | GI50 [4] | GI50 [5] | GI50 [6] | GI50 [7] | GI50 [8] | GI50 [9] | GI50 [10] | GI50 [11] | GI50 [12] | GI50 [13] | GI50 [14] | GI50 [15] | GI50 [16] | GI50 [17] | GI50 [18] | GI50 [19] | GI50 [20] |
| --- | --- | --- | --- | --- | --- | --- | --- | --- | --- | --- | --- | --- | --- | --- | --- | --- | --- | --- | --- | --- |
| CC(C)=CCNc1ncnc2[nH]cnc12 | > 100 µM (inactive) | > 100 µM (inactive) | > 100 µM (inactive) | > 100 µM (inactive) | > 100 µM (inactive) | > 100 µM (inactive) | 99.8 µM (inactive) | > 100 µM (inactive) | > 100 µM (inactive) | > 100 µM (inactive) | > 100 µM (inactive) | > 100 µM (inactive) | > 100 µM (inactive) | > 100 µM (inactive) | > 100 µM (inactive) | > 100 µM (inactive) | > 100 µM (inactive) | > 100 µM (inactive) | > 100 µM (inactive) | – |
| Cn1c(=O)c2nc(CCCc3ccc([N+](=O)[O-])cc3)[nH]c2n(C)c1=O | 56.6 µM (inactive) | > 100 µM (inactive) | > 100 µM (inactive) | > 100 µM (inactive) | > 100 µM (inactive) | > 100 µM (inactive) | > 100 µM (inactive) | > 100 µM (inactive) | > 100 µM (inactive) | > 100 µM (inactive) | 91.2 µM (inactive) | > 100 µM (inactive) | > 100 µM (inactive) | 31.2 µM (inactive) | – | 38.5 µM (inactive) | > 100 µM (inactive) | > 100 µM (inactive) | > 100 µM (inactive) | – |
| CC(=O)OCCCCN1C(=O)CSc2ccccc21 | > 100 µM (inactive) | > 100 µM (inactive) | > 100 µM (inactive) | > 100 µM (inactive) | – | > 100 µM (inactive) | > 100 µM (inactive) | > 100 µM (inactive) | > 100 µM (inactive) | > 100 µM (inactive) | > 100 µM (inactive) | > 100 µM (inactive) | > 100 µM (inactive) | – | > 100 µM (inactive) | > 100 µM (inactive) | > 100 µM (inactive) | – | > 100 µM (inactive) | – |
| COc1cccc(C23CCCC(C2)NCC3Br)c1OC (configuration not stated) | 45 µM (inactive) | 28.4 µM (inactive) | 39 µM (inactive) | 53.8 µM (inactive) | 11.9 µM (inactive) | 42.3 µM (inactive) | 35.1 µM (inactive) | 19.7 µM (inactive) | 56.2 µM (inactive) | 38 µM (inactive) | 17.9 µM (inactive) | 31.3 µM (inactive) | 27.9 µM (inactive) | 21.5 µM (inactive) | 35.6 µM (inactive) | – | 92.3 µM (inactive) | 15.3 µM (inactive) | 26.3 µM (inactive) | – |
| O=C1c2cc(Cl)ccc2N=C(NC2CCCC2)C2CSCN12 (configuration not stated) | 33.5 µM (inactive) | > 100 µM (inactive) | > 100 µM (inactive) | > 100 µM (inactive) | > 100 µM (inactive) | > 100 µM (inactive) | 35.7 µM (inactive) | 39.6 µM (inactive) | > 100 µM (inactive) | > 100 µM (inactive) | 47.4 µM (inactive) | 41.5 µM (inactive) | – | 59.2 µM (inactive) | > 100 µM (inactive) | – | 92.9 µM (inactive) | – | 42 µM (inactive) | > 100 µM (inactive) |
| CC1CCc2sc3nc4n(c(=O)c3c2C1)CC(C)S4 (configuration not stated) | – | 25.6 µM (inactive) | 34.4 µM (inactive) | 28.3 µM (inactive) | 18 µM (inactive) | 27.7 µM (inactive) | 28.3 µM (inactive) | 39.9 µM (inactive) | 27 µM (inactive) | 14.3 µM (inactive) | 22.5 µM (inactive) | 26.2 µM (inactive) | 26.1 µM (inactive) | 24.7 µM (inactive) | 43.9 µM (inactive) | – | 15.4 µM (inactive) | 25.3 µM (inactive) | 22.4 µM (inactive) | 19.7 µM (inactive) |
| COc1cccc(/N=N/C(=N/NC(=O)c2cc(Cl)ccc2O)c2ccc(N(CCC#N)CCC#N)cc2C)c1 | 19.1 µM (inactive) | 38.3 µM (inactive) | 64.4 µM (inactive) | 43.4 µM (inactive) | 6.21 µM (inactive) | 53.5 µM (inactive) | 28.5 µM (inactive) | 33.2 µM (inactive) | > 100 µM (inactive) | 37.3 µM (inactive) | 32.7 µM (inactive) | 21.2 µM (inactive) | – | 21.3 µM (inactive) | – | 18.4 µM (inactive) | 38.1 µM (inactive) | 35 µM (inactive) | 7.35 µM (inactive) | 23.6 µM (inactive) |
| CCOC(=O)c1c(N)n(-c2ccccc2)c(=O)n(-c2ccccc2)c1=O | > 100 µM (inactive) | > 100 µM (inactive) | > 100 µM (inactive) | > 100 µM (inactive) | > 100 µM (inactive) | > 100 µM (inactive) | > 100 µM (inactive) | > 100 µM (inactive) | > 100 µM (inactive) | > 100 µM (inactive) | > 100 µM (inactive) | > 100 µM (inactive) | > 100 µM (inactive) | > 100 µM (inactive) | > 100 µM (inactive) | – | > 100 µM (inactive) | > 100 µM (inactive) | > 100 µM (inactive) | > 100 µM (inactive) |
| COc1cc(C2=C(C)[C@@H]3CN(CC=C3c3ccc(Cl)cc3)C2)c(S(=O)(=O)O)cc1OC | > 100 µM (inactive) | > 100 µM (inactive) | > 100 µM (inactive) | > 100 µM (inactive) | > 100 µM (inactive) | > 100 µM (inactive) | > 100 µM (inactive) | > 100 µM (inactive) | > 100 µM (inactive) | > 100 µM (inactive) | – | > 100 µM (inactive) | > 100 µM (inactive) | > 100 µM (inactive) | > 100 µM (inactive) | – | > 100 µM (inactive) | > 100 µM (inactive) | > 100 µM (inactive) | – |
| COc1cc2c(cc1OCCCCOc1cc3nc(C)nc(Cl)c3cc1OC)N=C[C@@H]1CCCN1C2=O | 1.7 µM (inactive) | 1.26 µM (inactive) | 1.62 µM (inactive) | 3.22 µM (inactive) | 19.1 µM (inactive) | 17.4 µM (inactive) | 1.89 µM (inactive) | 1.99 µM (inactive) | 2 µM (inactive) | 2.43 µM (inactive) | 3.4 µM (inactive) | 0.57 µM (active) | 2.02 µM (inactive) | 2.07 µM (inactive) | 2.54 µM (inactive) | 2.04 µM (inactive) | 2.12 µM (inactive) | 1.82 µM (inactive) | 15.3 µM (inactive) | – |
| COCC12CCC(OC)C34C5CC6(O)C(OC)C=C(C5C6OC(=O)c5ccccc5)C(C(OC)C13)C4N(C)C2 (configuration not stated) | – | > 100 µM (inactive) | > 100 µM (inactive) | > 100 µM (inactive) | > 100 µM (inactive) | > 100 µM (inactive) | > 100 µM (inactive) | 27.1 µM (inactive) | > 100 µM (inactive) | > 100 µM (inactive) | > 100 µM (inactive) | > 100 µM (inactive) | > 100 µM (inactive) | – | > 100 µM (inactive) | > 100 µM (inactive) | > 100 µM (inactive) | > 100 µM (inactive) | > 100 µM (inactive) | > 100 µM (inactive) |
